Consider six compounds from ChEMBL document CHEMBL1143346, “Solid-phase parallel synthesis and SAR of 4-amidofuran-3-one inhibitors of cathepsin S: effect of sulfonamides P3 substituents on potency and selectivity” (Bioorg Med Chem, 2009).

For orientation: Ki means the dissociation constant of the complex between target and ligand, obtained from inhibition or displacement.

Structures are written as SMILES.

For one assay, the target named is Cathepsin S (Homo sapiens, UniProt P25774). As to the kind of experiment: Inhibition of human recombinant cathepsin S expressed in baculovirus by fluorescence assay.
Another assay addresses Procathepsin L (Homo sapiens, UniProt P07711). As to the kind of experiment: Inhibition of human cathepsin L by fluorescence assay.
A further assay has as its target T1, Cathepsin K (Homo sapiens, UniProt P43235).
T1 sequence (P43235 whole entry): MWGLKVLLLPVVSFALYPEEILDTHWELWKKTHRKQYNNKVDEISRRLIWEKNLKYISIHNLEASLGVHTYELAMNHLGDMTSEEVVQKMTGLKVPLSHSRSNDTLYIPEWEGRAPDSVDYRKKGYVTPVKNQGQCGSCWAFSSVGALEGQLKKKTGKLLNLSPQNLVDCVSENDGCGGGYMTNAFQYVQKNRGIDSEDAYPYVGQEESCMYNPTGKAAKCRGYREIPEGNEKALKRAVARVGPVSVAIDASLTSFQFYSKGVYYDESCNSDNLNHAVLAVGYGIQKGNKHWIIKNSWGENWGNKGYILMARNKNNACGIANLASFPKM
As to the kind of experiment: Inhibition of human recombinant cathepsin K expressed in baculovirus by fluorescence assay.

Chain of Procathepsin L (P07711 whole entry): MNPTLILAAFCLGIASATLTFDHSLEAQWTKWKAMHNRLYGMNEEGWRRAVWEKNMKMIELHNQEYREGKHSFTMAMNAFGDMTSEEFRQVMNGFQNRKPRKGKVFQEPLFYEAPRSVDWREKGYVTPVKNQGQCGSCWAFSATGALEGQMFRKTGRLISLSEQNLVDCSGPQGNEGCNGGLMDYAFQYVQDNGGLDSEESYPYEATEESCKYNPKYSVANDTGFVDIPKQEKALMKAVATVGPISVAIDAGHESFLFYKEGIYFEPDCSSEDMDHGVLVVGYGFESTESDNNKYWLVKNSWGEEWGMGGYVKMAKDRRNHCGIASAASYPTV
Chain of Cathepsin S (P25774 whole entry): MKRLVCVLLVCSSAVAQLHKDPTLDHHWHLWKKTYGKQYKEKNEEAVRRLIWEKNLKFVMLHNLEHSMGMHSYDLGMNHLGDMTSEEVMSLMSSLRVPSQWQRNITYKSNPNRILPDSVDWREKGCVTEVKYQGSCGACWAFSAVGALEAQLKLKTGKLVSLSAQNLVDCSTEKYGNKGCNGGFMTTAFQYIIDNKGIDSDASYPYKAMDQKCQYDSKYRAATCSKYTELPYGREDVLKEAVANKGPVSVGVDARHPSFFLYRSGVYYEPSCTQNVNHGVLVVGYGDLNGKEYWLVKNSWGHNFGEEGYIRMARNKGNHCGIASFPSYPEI

On to `CC[C@@H]1OCC(=O)[C@H]1NC(=O)[C@H](CC1(C)CCCC1)NC(=O)c1ccc(NS(C)(=O)=O)cc1`, for which the Ki on Cathepsin S was 2.6 nM; at Procathepsin L, 12000 nM; on Cathepsin K it was 290 nM.

For `CC[C@@H]1OCC(=O)[C@H]1NC(=O)[C@H](CC1(C)CCCC1)NC(=O)c1cccc(NS(C)(=O)=O)c1`, the results for the Ki at Cathepsin S, at Procathepsin L and at Cathepsin K were 12 nM, 2500 nM and 1500 nM, respectively.

As to `CC[C@@H]1OCC(=O)[C@H]1NC(=O)[C@H](CC1(C)CCCC1)NC(=O)c1ccc(N(C)S(C)(=O)=O)cc1`, the values for the Ki on Cathepsin S, on Procathepsin L and at Cathepsin K were 110 nM, 11000 nM and 98 nM, respectively.

Consider `CC[C@@H]1OCC(=O)[C@H]1NC(=O)[C@H](CC1(C)CCCC1)NC(=O)c1ccc(S(=O)(=O)NC)cc1`, for which the figures for the Ki at Cathepsin S, on Procathepsin L and on Cathepsin K were 140 nM, 27000 nM and 420 nM, respectively.

Consider `CC[C@@H]1OCC(=O)[C@H]1NC(=O)[C@H](CC1(C)CCCC1)NC(=O)c1cccc(S(=O)(=O)NC)c1`, for which the Ki came out at 190 nM at Cathepsin S, 15000 nM on Procathepsin L and 23000 nM on Cathepsin K.

Consider `CC[C@@H]1OCC(=O)[C@H]1NC(=O)[C@H](CC(C)(C)C)NC(=O)c1ccsc1`, for which the Ki at Cathepsin S stood at 31 nM; on Procathepsin L, 10000 nM; on Cathepsin K, 318 nM.
